This is an account of results in article PMC8588420 (Molecules, 2021).

Each structure is given as a SMILES string.

The conditions of data set [1]: n-octanol-water, literature value ref 46; cited from earlier work.
A short description of data set [2]: NP-TLC chromatographic lipophilicity parameter (RMW). It is filed as physicochemical. The following applies: for RMW: NP-TLC; for RMW range over NP-TLC plates: four chromatographic plates. As to the method: (§1) The lipophilicity study was performed on chromatographic plates for RP-TLC and NP-TLC analysis purchased from Merck (Darmstadt, Germany): silica gel RP18F254 (aluminum plates, No. 1.05559), silica gel RP2F254 (glass plates, No. 1.05747), and RP18WF254 (glass plates, No. 1.13142) were applied as stationary phases in the reversed-phase system. In the case of the NP-TLC system, aluminum chromatographic plates precoated with silica gel 60F254 without (No. 1.05554) and with a concentrating zone (No. 1.05583), glass plates precoated with silica gel 60CNF254 (No. 1.16464), and aluminum plates coated with the mixture of silica gel 60 and Kieselguhr F254 were tested (No. 1.05567).
The lipophilicity studies of the tested compounds were carried out on chromatographic plates 10 cm × 10 cm developed using mobile phases (50 mL) prepared by mixing the respective amounts of the organic modifier (methanol/acetonitrile/propan-1-ol/acetone) and water. In the case of NP-TLC analysis, the addition of 2.4% glacial acetic acid in the mobile phase methanol-water was used. The organic modifier concentrations (volume fraction, v/v) varied in a range from 0.40 to 0.90 in constant steps of 0.10. […] Chromatography was performed in a classical developing chamber, which was previously saturated with mobile phase vapors for 20 min. The migration distance was 7.0 cm. After the development, the plates were dried at room temperature (20 ± 1 °C) and visualized in UV light (λ = 254 nm) as the maximum wavelength for both biguanides. All analyses were repeated in triplicate. The average value of RF (retardation factor) was determined in every case.
(§2) In this study, the chromatographic lipophilicity parameters of both studied compounds were calculated based on the retardation factor (RF) obtained for metformin and phenformin in each mobile phase and chromatographic plates used as the stationary phase. […]
Then, a linear correlation between the RM of the tested compounds and the volume ratio of the organic solvent in the mobile phase was performed for every chromatographic plate. The extrapolation of calculated RM values to the zero concentration of the organic modifier (i.e., to pure water) in accordance with Soczewiński-Wachtmeister’s Equation (2) allowed determining a valuable chromatographic parameter of lipophilicity expressed as RMW [1]. RM = RMW − S⋅φ(2) where RMW is the chromatographic parameter obtained using Soczewiński–Wachtmeister’s Equation (2), S is the regression slope, and φ is the volume fraction of the organic modifier (e.g., methanol, propan-1-ol, acetonitrile, acetone) in the mobile phase composition. Statistica v. 13.3 software (StatSoft, Kraków, Poland) was used to determine the parameters of these linear relationships.

Data set [3] can be described thus: RP-TLC chromatographic lipophilicity parameter (RMW). Format: physicochemical. The following applies: RP2, RP18, RP18W plates; methanol-water, propan-1-ol-water, acetonitrile-water. As to the method:
as §1
The lipophilicity studies of the tested compounds were carried out on chromatographic plates 10 cm × 10 cm developed using mobile phases (50 mL) prepared by mixing the respective amounts of the organic modifier (methanol/acetonitrile/propan-1-ol/acetone) and water. In the case of NP-TLC analysis, the addition of 2.4% glacial acetic acid in the mobile phase methanol-water was used. […] The average value of RF (retardation factor) was determined in every case.
as §2

On to `[H]/N=C(/N)N/C(=N/[H])NCCc1ccccc1` [Phenformin], for which, in data set [1], the logPow is −0.83. Further, the RMW in data set [2] (Silica gel 60F254, acetone-water) was -4.383; in data set [2] (Silica gel 60F254 with concentrating zone, methanol-water-acetic acid), -1.983. Moreover, the “RMW range over NP-TLC plates” value was −4.383–0.790 in data set [2] (acetone-water) and −1.983–6.170 in data set [2] (methanol-water-acetic acid). Besides, the “RMW range over RP-TLC systems” value in data set [3] is on record as 0.142 to 0.728.

For the compound `CN(C)C(=N)N=C(N)N` [Metformin, dimethylbiguanide], the “RMW range over NP-TLC plates” value is given as −4.127 to 1.242 in data set [2] (acetone-water) and −6.657 to 0.833 in data set [2] (methanol-water-acetic acid). The “RMW range over RP-TLC systems” value in data set [3] is given as −4.877 to 0.960.
